Data reported in patent US20050176691A1, “Combination therapy for the treatment of estrogen-sensitive disease” (priority 2000, published 2005).
Where two headings read alike, the source gives them in different places.

Key:
[1] = Other effects on ADME or PK (patient factors); settings: in vivo
[2] = Pharmacokinetic profile; assay type: in vivo
[3] = system: estrogen receptor / enzyme (primary endocrine mechanism); assay: Endocrine effect
[4] = system: primary metabolizing enzyme(s); assay: Metabolism characteristics; assay type: in vitro ADME
[5] = Excretion characteristics; settings: in vivo
[6] = system: plasma protein; assay: Distribution: plasma protein binding; assay type: in vitro ADME
[7] = Absorption characteristics; settings: in vivo
[8] = during combination therapy with tamoxifen; persisted during months; cited from earlier work

Compound: CN(C)CCOc1ccc(/C(=C(/CCCl)c2ccccc2)c2ccccc2)cc1 [Toremifene, (Z)-2-[4-(4-chloro-1,2-diphenyl-1-butenyl)phenoxy]-N,N-dimethylethanamine]
- effect of race of patient on ADME or PK [1]: unexpected
- effect of sex of patient on ADME or PK [1]: no known effect
- overall time to steady state ([2]; in vivo): 4-6 weeks
- half-life ([2]; in vivo, read-out: distribution t1/2 (time) (converted)): 4 h
- half-life ([2]; in vivo, read-out: elimination t1/2 (time) (converted)): 120 h
- clearance ([2]; in vivo, read-out: total clearance (volume/unit time) (converted)): 83.3 mL/min
- Tmax ([2]; plasma, oral): 3 h
- direct inhibition of primary mechanism by combination drug [3]: no
- feedback stimulation on combination drug's primary mechanism [3]: yes
- induction of primary metabolizing enzyme [4]: no
- plasma levels affected by known inducers of cytochrome p-450 enzyme system [4]: yes
- primary enzyme(s) of metabolism [4]: CYP3A4
- primary metabolite active [4]: yes
- significant pre-systemic metabolism [4]: no
- enterohepatic circulation [5]: yes
- primary route of elimination [5]: fecal
- enterohepatic circulation ([5]; listed as toremifene): subject to enterohepatic circulation
- principal plasma binding protein(s) [6]: albumin
- fraction unbound ([6]; plasma): < 0.005
- Absorption: influenced by food [7]: no
- Absorption: route [7]: oral

Compound: N#Cc1ccc(C(c2ccc(C#N)cc2)n2cncn2)cc1 [letrozole, 4,4′-(1H-1,2,4-triazol-1-ylmethylene)bis-benzonitrile]
- mean reduction of plasma levels of letrozole vs single agent letrozole [8]: 37%
